# Numbered stars: 1 amine (or outer) side, 2 acyl side, 3 side chain; on linkers, the order of the positions; unused ones are H or OH. Bridge positions count the residues as written; N and C are the ends. Square brackets hold non-standard residues; d marks the D form. Peptide text beside a SMILES is read from it. NMehTyr = CN[C@@H](CCc1ccc(O)cc1)C(=O)O; hTyr = N[C@@H](CCc1ccc(O)cc1)C(=O)O; NMeA = CN[C@@H](C)C(=O)O; CO = O=C([*:1])[*:2]
# Target: Carboxypeptidase A1 (Bos taurus) (UniProt P00730)
# Experiment: Ability to inhibit Carboxypeptidase A from bovine pancreas at a concentration of 50 ug/mL; No Activity; call rule not given here
row,SMILES,IC50
1,COc1ccc(CC[C@@H]2NC(=O)[C@H](C(C)C)NC(=O)[C@H](NC(=O)N[C@@H](CCCN=C(N)N)C(=O)O)CCCCNC(=O)[C@H](Cc3ccccc3)NC(=O)[C@H](C)N(C)C2=O)cc1,Not Active
2,CC(C)[C@@H]1NC(=O)[C@H](NC(=O)N[C@@H](CCCNC(=N)N)C(=O)O)CCCCNC(=O)[C@H](Cc2ccccc2)NC(=O)[C@H](C)N(C)C(=O)[C@H](CCc2ccc(O)cc2)NC1=O [ANABAENOPEPTIN B] ({Arg-CO}-[dK]V[hTyr][NMeA]F; lactam 1-C),Not Active
3,CC[C@H](C)[C@@H]1NC(=O)[C@H](NC(=O)N[C@@H](CCCNC(=N)N)C(=O)O)CCCCNC(=O)[C@H](Cc2ccccc2)NC(=O)[C@H](C)N(C)C(=O)[C@H](CCc2ccc(O)cc2)NC1=O [ANABAENOPEPTIN F] ({Arg-CO}-[dK]I[hTyr][NMeA]F; lactam 1-C),Not Active

# Target: Carboxypeptidase A1 (Bos taurus) (UniProt P00730)
# Experiment: Ability to inhibit Carboxypeptidase A from bovine pancreas
row,SMILES,IC50 [µg/mL]
1,CC[C@H](C)[C@@H]1NC(=O)[C@H](NC(=O)NC(Cc2ccc(O)cc2)C(=O)O)CCCCNC(=O)[C@H]([C@@H](C)CC)NC(=O)[C@H](CCc2ccc(O)cc2)N(C)C(=O)[C@H](CCc2ccc(O)cc2)NC1=O (stereo partly specified),0.0018
2,CC[C@H](C)[C@@H]1NC(=O)[C@H](NC(=O)N[C@@H](CCCNC(=N)N)C(=O)O)CCCCNC(=O)[C@H]([C@@H](C)CC)NC(=O)[C@H](CCc2ccc(O)cc2)N(C)C(=O)[C@H](CCc2ccc(O)cc2)NC1=O [ANABAENOPEPTIN H] ({Arg-CO}-[dK]I[hTyr][NMehTyr]I; lactam 1-C),3.4
3,CC[C@H](C)[C@H](NC(=O)N[C@@H]1CCCCNC(=O)[C@H]([C@@H](C)CC)NC(=O)[C@H](CCc2ccc(O)cc2)N(C)C(=O)[C@H](CCc2ccc(O)cc2)NC(=O)[C@H](C(C)C)NC1=O)C(=O)O [ANABAENOPEPTIN T],2
